Literature values, collected in patent publication US20140057918A1, “Methods of Use for Monomethyl Fumarate and Prodrugs Thereof” (XenoPort, Inc., priority 2012, published 2014).
Structures can show the parent of a compound that is named as a salt.

Assays:
herpes simplex virus = details: animals infected with the herpes simplex virus

For COC(=O)/C=C/C(=O)OC [Dimethyl fumarate, Dimethyl (E)-butenedioate], the aqueous solubility is given as “poor” and the herpes stromal keratitis (herpes simplex virus) is given as “improved”.
